Tests used:
[1] = tested on: pain response (tail flick) in CD-1 mice; experiment: tail flick analgesic test; type: in vivo, CD-1 mice (Charles-River); settings: for analgesic activity in tail flick test: mice, oral
Procedure: (§1) Analgesic activity was measured in CD-1 mice (Charles-River) on the basis of the following three methods:
In the tail flick method (D'Amour, F. E., Smith, D. L., J. Pharmacol. Exp. Ther. 72, 74, 1941), the tail of each mouse is exposed to a concentrated light beam; when the animal feels pain, it removes its tail abruptly from said beam, and the latency time of this flick response is measured. The compound indicated by each symbol was administered orally to groups of 10 mice at the doses indicated as abscissae. The analgesia was quantified before and 15, 30, 60 and 120 minutes after the administration of each compound. The peak activity (30 minutes) was plotted as the percentage of mice in which the latency time for flicking the tail was at least doubled.

[2] = tested on: pain response (hotplate) in CD-1 mice; experiment: hotplate analgesic test; type: in vivo, CD-1 mice (Charles-River); settings: for analgesic activity in hotplate test (words): mice, oral
Procedure: as §1
The second method employed is the hotplate method (Wolfe, G. and MacDonald, A. D., J. Pharmacol. Exp. Ther. 80, 300, 1944). The mouse is placed on a plate at 54° C., and the latency time of withdrawal of a hind foot or a jump is measured. Groups of 10 mice, to which the compounds were administered orally at the doses indicated as abscissae, were subjected to the hotplate test before and at the end of 30 and 60 minutes following administration of the compounds. The mean latency at 30 and 60 minutes minus the baseline latency is plotted as ordinates.

[3] = tested on: writhes produced by intraperitoneal acetic acid in CD-1 mice; experiment: acetic acid writhing test; type: in vivo, CD-1 mice (Charles-River); settings: oral; for ED50: Mus musculus, 25 min, 0.4% acetic acid i.p. 25 minutes later
Procedure: as §1
(§2) The third method consists in measuring the number of writhes performed by a mouse as a manifestation of the pain produced by an intraperitoneal injection of 10 mL/kg of 0.4% acetic acid solution. […] Following oral administration of each compound, the mice (groups of 8 or more) received, 25 minutes later, an intraperitoneal injection of 10 mL/kg of 0.4% acetic acid. The number of writhes was counted 5-15 minutes after the injection of acetic acid.

[4] = tested on: yeast-induced pyretic response in Sprague-Dawley rats; experiment: antipyretic activity (yeast-induced temperature increase); type: in vivo; settings: oral; for antipyretic effect: at the doses studied
Procedure: Antipyretic activity was determined in Sprague-Dawley rats weighing 130-220 g. The animals were injected subcutaneously with a 15% suspension of yeast dissolved in saline solution (1 mL/100 g body weight). Body temperature was measured by means of a rectal thermistor connected to a Cole-Palmer remote thermometer. The temperature at which the experiment was started was the temperature determined 2 hours after the administration of yeasts. Temperature measurements were subsequently made in animals to which paracetamol (standard) or the test compound was administered orally (Suspension K, Bioserve). The results, expressed as the percentage increase in temperature from the baseline value to that obtained 6 hours after the subcutaneous administration of yeast, are given in FIG. 4.

[5] = tested on: plasma GPT and GOT transaminase levels; settings: mouse, in vivo
Procedure: (§3) Toxicity studies were based on the measurement of two parameters: mortality and hepatotoxicity.
(§4) For the hepatotoxicity study, mice were kept fasted overnight. The following morning, the compounds were administered orally under ether anesthesia. […] Paracetamol was dissolved in 0.5% tragacanth in saline solution. 24 hours after administration of the compounds, blood was withdrawn from the orbital plexus of the mice anesthetized with ether, and placed in heparinized capillary tubes. The samples were centrifuged at 2000 rpm for 10 minutes, and the plasma glutamic-oxaloacetic transaminase (GOT) and glutamicpyruvic transaminase (GPT) levels were determined spectrophotometrically using Sigma kits. The number of animals used in each group is indicated within each column.

[6] = tested on: pain response in CD-1 mice; experiment: overall analgesic activity (tail flick, hotplate and acetic acid tests); type: in vivo, CD-1 mice (Charles-River); settings: oral
Procedure: as §1, §2

mice = experiment: mortality after oral administration; settings: summary statement
Procedure: as §3
Mortality was determined by means of the oral administration of 1 g/kg of paracetamol or the test compound (in Suspension K, Bioserve). For this purpose, the number of mice surviving 18 hours after the administration of each compound was counted.

[7] = solubility remark in hepatotoxicity study; type: physicochemical
Procedure: as §4

CC(=O)Nc1ccc(O)cc1 [Paracetamol]
analgesic activity in tail flick test [1]: did not display activity
analgesic activity in hotplate test (words) [2]: minimally active
analgesic activity in hotplate test (words) ([2]; listed as paracetamol): did not display activity
ED50 [3]: 130 mg/kg
analgesic activity in acetic acid test [3]: effective
ED50 ([4]; Rattus norvegicus, yeast s.c., read-out: ED50, reduction of pyretic response): 77.7 mg/kg
antipyretic effect [4]: reduced the pyretic response in a dose-dependent manner

CN1CC[C@]23c4c5ccc(O)c4O[C@H]2[C@@H](O)C=C[C@H]3[C@H]1C5 [Morphine]
ED50 ([1]; Mus musculus, po, read-out: ED50, tail flick test): 28.5 mg/kg
analgesic activity in tail flick test [1]: active
ED50 ([2]; Mus musculus, po, read-out: ED50, hotplate test): 22.3 mg/kg
analgesic activity in hotplate test (words) [2]: active
analgesic activity in acetic acid test [3]: active

O=C(CN1C(=O)c2ccccc2S1(=O)=O)Nc1ccc(O)cc1 [Example 1, 2-[2,3-Dihydro-3-oxo-1,2-benzisothiazol-2-yl 1,1-dioxide]-N-(4-hydroxyphenyl)acetamide]
analgesic activity in tail flick test [1]: did not display activity
hepatotoxicity [5]: lacks hepatotoxicity
analgesic activity in hotplate test (words) [2]: did not display activity
analgesic profile / analgesic activity [6]: analgesic profile identical to that of paracetamol
analgesic profile / analgesic activity ([6]; listed as Example I): analgesic activity equivalent to that of paracetamol
toxicity compared with paracetamol (mice): much lower toxicity
solubility [7]: poor solubility
ED50 [3]: 121 mg/kg
analgesic activity in acetic acid test [3]: displayed an analgesic effect
antipyretic effect [4]: did not display antipyretic effects
antipyretic effect ([4]; listed as Example I): not possessing antipyretic effects
